Measurements taken from patent US7608640B2, “Glycine betaine and its use” (priority 2001, dated 2009).
Each block holds one compound with its values, some of them ahead of it.

How the values were obtained:
bleeding time in rats = assay: Induced haemorrhagic (bleeding) time, tail cut; format: in vivo, rat
Method: Induced Haemorrahgic Time IHT
(E. Dejana. Bleeding time in rats. Thrombosis. Rech. 1982) Blood samples are made before the test. The tail of anaesthetised rat, is dipped for 5 minutes in a water bath at 37° C. so as to provoke a dilatation of the peripheral vessels which are removed and cut at the end, the chronometer being started. The IHT is defined as being the time period comprised between the cutting of end tail and the end of the haemorrhage or bleeding. The end of haemorrhage is defined as the time where the last drop of blood is removed from the tail and no other drop is seen for 180 seconds. […]

[1] = tested on: arterial thrombosis induced by laser beam in the mesenteric microcirculation of the rat; assay: Laser-induced thrombosis in the mesenteric microcirculation; format: in vivo
Text: A/Principle of Laser-induced Thrombosis (Seiffge D. et al., 1989; Weichter W. et al., 1983).
In this model, lesion of the vascular wall is induced by a laser beam. This beam causes a limited lesion of the vascular endothelium (only 1 to 2 cells are destroyed). This laying bare of the sub-endothelium, which is a thrombogenetic surface, results in the adherence of platelets via […]. This adherence of platelets is followed by the activation thereof. They form pseudopods and secrete the content of their granules. This activation results in the appearance of glycoproteins IIb-IIIa which are necessary for the aggregation of the platelets between them. This lesion is induced in the mesenteric microcirculation of the rat. It is immediately followed by the formation of a thrombus (in a few seconds). This thrombus, which rapidly enlarges under the influence of the flow of blood, embolises before being formed again.
By this manes, the assessment of the effect of glycine betaine was conducted pharmacologically in conjunction with the study of two active molecules used as a reference; namely acetylsalicylic acid and heparin (of low molecular weight). The assessment also involved the activity of glycine betaine in relation to the prothrombotic effects induced by contrasting products.
Male Wistar rats were used for these tests. They weighed between 200 and 250 grams. After an 8-day stabilisation period, the rats were subjected to fasting for 12 hours. They were then anaesthetised, glycine betaine was administered subcutaneously, and the mesentery (laser) or vena cava (stasis) was opened at the end of the experiments.

coagulation factors = assay: Biological balance (Quick time, ACT, fibrinogen, α2AP, AT III); format: in vivo, rat
platelet aggregation = assay: Whole blood platelet aggregation ex vivo (aggregometer); format: in vivo, rat; settings: after laser firings
Method: The aggregation is made in accordance to the methods of Cardinal & Flower. Pharmacol. Method. 1980, and to American Journal of Clinical Pathology, 1989; 92: 676-679, Sureney. J D. Whole Blood aggregometry. After a keeping period of 8 days, the rats are subjected to a fasting for 12 hours. […] The rats are then anaesthetised with sodium Thiopental administered at a dose of 200 mg/Kg and the blood samples are taken by intracardiac puncture on a trisodium citrate solution (1 volume of solution at 3.8% citrate for 9 volumes of blood).

blood cells = assay: Blood cell counts; format: in vivo, rat
[2] = contrasting products alone or with glycine betaine 5 mg/kg
[3] = after laser firings and administration of contrasting products, alone or with glycine betaine 5 mg/kg
[4] = rat, glycine betaine 5 mg/kg, acetylsalicylic acid 100 mg/kg, heparin 2 mg/kg
[5] = rat, after laser firings, glycine betaine 5 mg/kg, acetylsalicylic acid 100 mg/kg, heparin 2 mg/kg

- IBD (induced bleeding time) (bleeding time in rats; [2]): 128 ± 7.64 s
- Number of platelets (blood cells; [2]): 585.67 ± 23.54 10^9
Compound: C[C@H](O)C(=O)Nc1c(I)c(C(=O)NC(CO)CO)c(I)c(C(=O)NC(CO)CO)c1I [Iopamidol ®, Iopamidol]
- Duration of embolisation [1, 3]: 6.33 ± 0.52 min
- Number of emboles [1, 3]: 11.67 ± 0.50
- ACT (Activated cephaline time) (coagulation factors; [2]): 41.33 ± 0.8 s
- AT III (Antithrombin III) (coagulation factors; [2]): 70.6 ± 1.51%
- Fibrinogen (coagulation factors; [2]): 1.5 ± 0.8 g/L
- QT (Quick time) (coagulation factors; [2]): 28.1 ± 0.75 s
- α2AP (Alpha,2-antiplasmin) (coagulation factors; [2]): 25.23 ± 0.95%
- Amplitude (platelet aggregation) (platelet aggregation; [2]): 15 ± 2.64 ohm
- Velocity (platelet aggregation) (platelet aggregation; [2]): 12.33 ± 0.50 ohm/min

- Bleeding time (bleeding time in rats; [4]): 276.67 ± 20.82 s
- Number of platelets (blood cells; [4]): 855.33 ± 63.17 10^9
- Number of red corpuscles (blood cells; [4]): 6.15 ± 0.31 10^12
- Number of white corpuscles (blood cells; [4]): 4.33 ± 1.00 10^9
Compound: CC(=O)Oc1ccccc1C(=O)O [Acetylsalicylic acid]
- Duration of embolisation [1, 5]: 0.33 ± 0.58 min
- Number of emboles or embolies [1, 5]: 1 ± 1
- ACT (Activated cephaline time) (coagulation factors; [4]): 27.26 ± 1.1 s
- AT III (Antithrombin III) (coagulation factors; [4]): 85.33 ± 3.51%
- Fibrinogen (coagulation factors; [4]): 2.19 ± 0.33 g/L
- QT (Quick time) (coagulation factors; [4]): 18.33 ± 2.08 s
- α2AP (Alpha,2-antiplasmin) (coagulation factors; [4]): 29.36 ± 0.92%
- Amplitude (platelet aggregation) (platelet aggregation; [4]): 2.33 ± 2.08 ohms
- Velocity (platelet aggregation) (platelet aggregation; [4]): 2 ± 1 ohms/min
